{"source": "patent US11891667B2", "about": "“IGF2BP3 functional alterations and overexpression as a marker for cancer diagnosis and therapeutic response to IGF1R inhibitors” (UNIVERSITY OF PITTSBURGH-OF THE COMMONWEALTH SYSTEM OF …, priority 2016, dated 2024)", "key": {"[1]": {"system": "Caco-2 colon cancer cell tumors", "assay": "Caco-2 xenograft in nude mice", "assay_type": "in vivo", "settings": "FIG. 5F; for tumor growth: Caco-2 subcutaneous xenograft, nude mice, therapeutic doses", "protocol": "(§1) Next, tumor cells overexpressing IGF2BP3 were tested to see if their growth can be blocked via IGF1R inhibition in vivo using a xenograft experimental model. Pancreatic cancer cells PaCa-2 and colon cancer cells Caco-2, both expressing IGF2PB3 at high level (FIG. 5B), and thyroid cancer cells FTC133 with low levels of IGF2BP3 expression were employed to establish tumors growing in nude mice at sites of subcutaneous cell injection."}, "[2]": {"system": "FTC133 thyroid cancer cell tumors", "assay": "FTC133 xenograft in nude mice", "assay_type": "in vivo", "settings": "FIG. 5G; for tumor growth: FTC133 subcutaneous xenograft, nude mice, therapeutic doses", "protocol": "as §1"}, "[3]": {"system": "U2OS cells with induced IGF2BP3 expression", "assay": "Cell growth of U2OS cells transiently transfected with IGF2BP3", "assay_type": "cell-based", "settings": "IGF2BP3 induced by transient transfection, FIG. 5C", "protocol": "(§2) The effects of IGF1R inhibition on the growth of cancer cells driven by IGF2PB3 overexpression were then tested. First, studies were conducted to determine if activation of the AKT and MAPK pathways and cell growth induced by IGF2BP3 overexpression is affected by inhibiting IGF1R by OSI-906 in vitro. […] The experiments were repeated in quadruplicate and were calculated as percentage of viable cells after treatment with OSI-906 (mean±SD). […] Again, the assay was performed in quadruplicate and shown as mean±SD."}, "FTC133 cells": {"system": "FTC133 cells", "assay": "Cell growth/proliferation of FTC133 cells (low IGF2BP3)", "assay_type": "cell-based, human", "protocol": "as §2"}, "IGF1R": {"system": "IGF1R", "assay": "Western blotting of IGF1R phosphorylation and downstream signaling in HEK293 cells overexpressing IGF2BP3", "assay_type": "cell-based", "settings": "FIG. 5A", "protocol": "as §2"}, "[4]": {"system": "FTC133 cells with induced IGF2BP3 expression", "assay": "Cell growth of FTC133 cells transiently transfected with IGF2BP3", "assay_type": "cell-based, human", "settings": "FTC133, IGF2BP3 induced by transient transfection, FIG. 5C", "protocol": "as §2"}, "PaCa-2 cells": {"system": "PaCa-2 cells", "assay": "Soft agar colony formation of PaCa-2 cells", "assay_type": "cell-based, human", "protocol": "Finally, the impact of IGF2BP3 overexpression on cell transformation was investigated.\nas §2"}, "[5]": {"system": "PaCa-2 pancreatic cancer cell tumors", "assay": "PaCa-2 xenograft in nude mice", "assay_type": "in vivo", "settings": "FIG. 5F; for tumor growth: PaCa-2 subcutaneous xenograft, nude mice, therapeutic doses", "protocol": "as §1"}, "PaCa-2 cancer cells": {"system": "PaCa-2 cancer cells", "assay": "Cell growth/proliferation of PaCa-2 cancer cells (high IGF2BP3)", "assay_type": "cell-based, human", "protocol": "as §2"}, "U2OS cells": {"system": "U2OS cells", "assay": "Cell growth/proliferation of U2OS cells (low IGF2BP3)", "assay_type": "cell-based", "protocol": "as §2"}, "solid tumors": {"system": "solid tumors", "settings": "cited from earlier work"}}}
{"smiles": "C[C@]1(O)C[C@@H](c2nc(-c3ccc4ccc(-c5ccccc5)nc4c3)c3c(N)nccn32)C1", "note": "[OSI-906, linsitinib]", "values": [{"measurement": "tumor growth", "setting": "[1]", "value": "arrested growth of tumors"}, {"measurement": "tumor growth", "setting": "[1]; listed as linsitinib", "value": "particularly inhibited"}, {"measurement": "phosphorylated IGF1R, AKT, S6, and ERK in the tumor tissue", "setting": "[1]; Caco-2 xenograft tumor tissue", "value": "reduction of phosphorylated IGF1R, AKT, S6, and ERK"}, {"measurement": "tumor growth", "setting": "[2]", "value": "had no effect on the growth"}, {"measurement": "tumor growth", "setting": "[2]; listed as linsitinib", "value": "not impacted"}, {"measurement": "phosphorylated IGF1R, AKT, S6, and ERK in the tumor tissue", "setting": "[2]; FTC133 xenograft tumor tissue", "value": "did not show reduction in the phosphorylation"}, {"measurement": "cell growth", "setting": "[3]", "value": "acquired sensitivity to growth inhibition"}, {"measurement": "cell growth", "setting": "FTC133 cells; FTC133, low IGF2BP3 expression, FIG. 5B", "value": "did not have any effects"}, {"measurement": "proliferation (percentage of viable cells)", "setting": "FTC133 cells; FTC133, treatment for 72 hours, FIG. 5B bottom panel", "value": "no effect on proliferation"}, {"measurement": "IGF1R phosphorylation and downstream signaling induced by IGF2BP3", "setting": "IGF1R; 5 μM, 30 minutes", "value": "inhibition of IGF1R phosphorylation and downstream signaling"}, {"measurement": "phosphorylation of AKT, S6, and ERK induced by IGF2BP3 overexpression", "setting": "IGF1R; Western blotting", "value": "blocked phosphorylation of AKT, S6, and ERK"}, {"measurement": "cell growth", "setting": "[4]", "value": "acquired sensitivity to growth inhibition"}, {"measurement": "colony formation in soft agar", "setting": "PaCa-2 cells", "value": "significant reduction of colony formation"}, {"measurement": "tumor growth", "setting": "[5]", "value": "arrested growth of tumors"}, {"measurement": "tumor growth", "setting": "[5]; listed as linsitinib", "value": "particularly inhibited"}, {"measurement": "phosphorylated IGF1R, AKT, S6, and ERK in the tumor tissue", "setting": "[5]; PaCa-2 xenograft tumor tissue", "value": "reduction of phosphorylated IGF1R, AKT, S6, and ERK"}, {"measurement": "cell growth", "setting": "PaCa-2 cancer cells; PaCa-2, strongly overexpress IGF2BP3, FIG. 5B", "value": "dose-dependent growth inhibition"}, {"measurement": "proliferation (percentage of viable cells)", "setting": "PaCa-2 cancer cells; PaCa-2, treatment for 72 hours, FIG. 5B bottom panel", "value": "inhibition of proliferation"}, {"measurement": "cell growth", "setting": "U2OS cells; low IGF2BP3 expression, FIG. 5B", "value": "did not have any effects"}, {"measurement": "proliferation (percentage of viable cells)", "setting": "U2OS cells; treatment for 72 hours, FIG. 5B bottom panel", "value": "no effect on proliferation"}, {"measurement": "proportion of patients with clinical response", "setting": "solid tumors; clinical trials, patients with solid tumors", "value": "1-5%"}, {"measurement": "efficacy in patients in clinical trials", "setting": "solid tumors; clinical trials", "value": "ineffective in the vast majority of patients"}, {"measurement": "tumor responsiveness in clinical trials", "setting": "solid tumors; colorectal cancer, non-small cell lung cancer, sarcoma, and other cancer types", "value": "only low levels of tumor responsiveness were observed"}]}
